Here are results for one molecule from patent US20180027807A1, “Vermin Control Compositions” (priority 2013, published 2018).

Where two headings read alike, the source gives them in different places.

The conditions of series [1]: cited from earlier work.
Series [2] can be described thus: Accelerated stability study of cholecalciferol in DMSO/ethanol formulations. Type of series: physicochemical. As to conditions: across all formulations, 25° C.±2° C./60% RH±5%. The procedure: The stability of cholecalciferol in the chosen penetration enhancer is an important consideration when analysing the physical properties of the formulation. An unstable formulation which causes cholecalciferol to degrade would result in delivery of sub-lethal doses. […] Conversely, cholecalciferol solutions in surfactants and oils are said to be stable over long periods at 40° C. In order to assess the stability of cholecalciferol when combined with the chosen penetration enhancers an accelerated stability study was performed. In total, 6 formulations with varying types and concentration of penetration enhancers were stored in an accelerated stability cabinet at 25° C.±2° C./60% RH±5%. Each formulation contained 10% (w/v) cholecalciferol. Each formulation was made up a day before the intended start date of the stability study and left in a water bath/shaker overnight at 25° C. to allow adequate time for the cholecalciferol to dissolve. Amber bottles were used to prevent photo-degradation and parafilm was used to seal round the screw lid to prevent oxidative degradation from the air. At each sampling point the lid was removed and 200 μl taken; the sample was serially diluted 8 times (256-fold) before analysis with HPLC.
All formulations contain 10% (w/v) cholecalciferol.

The conditions of series [3]: crystalline form, 7 days, cited from earlier work.

For `C=C1CC[C@H](O)C/C1=C/C=C1\CCC[C@]2(C)[C@@H]([C@H](C)CCCC(C)C)CC[C@@H]12` [cholecalciferol], the “Solubility (class)” value in series [1] (cholecalciferol in ethanol, classification taken from the British Pharmacopeia) was “freely soluble (a solubility between 1-10 ml/g is classed as freely soluble)”. Further, in series [1] (cholecalciferol in water, stated), the solubility in water entry is reported as “practically insoluble”. Also, the degradation of cholecalciferol in series [2] (during the first 10 days) is given as 16.83%. In series [2] (over 50 days, 10% (w/v) in DMSO/ethanol ratios, amber bottles), the “degradation of cholecalciferol (drop in potency)” value came to 27.11%. Also, the results for the decrease in potency in series [3] (40° C./45% RH) and in series [3] (40° C./85% RH) were 35% and 85%, respectively.
